From patent US20160279252A1, “COMPOSITIONS FOR INDUCING IMMUNE TOLERANCE TO COAGULATION FACTOR PROTEINS” (BAYER HEALTHCARE LLC, priority 2013, published 2016)

Assays:
[1] = system: C57BL/6J mice; assay: Tolerization of C57BL/6J mice to HEL (anti-HEL titers); type: in vivo, mouse; conditions: for effect of ligand amount on liposomes on antibody production: HEL liposomes with varying ligand, day 44 after two challenges
Method: Immunization and Blood Collection: Whole blood (50 μL) was collected from mice via a retro-orbital bleed using heparinized capillary tubes (Fisher). Blood was centrifuged (17,000 rcf, 1 min) to collect the serum. Serum was either used immediately for ELISAs or stored at −20° C. […] Liposomes and cells were delivered via the lateral tail vein in a volume of 200 μL. For studies involving a challenge with soluble (non-liposomal) antigen, mice were injected with 200 μg of HEL dissolved in HBSS and delivered intraperitoneally or 1 μg of FVIII delivered intravenously.
ELISAs: Maxisorp plates (96-well; Thermo Fisher) were coated with 50 μL/well of the relevant protein at a concentration of between 10-100 μg/mL in PBS and left overnight at 4° C. […] The following day, the plates were washed twice in TBS-T (Tris-buffered saline blocked containing 0.1% Tween 20) and blocked for 1 hr at RT with 100 μL of assay diluent (TBS-T with 1% BSA). Washing of the plates was accomplished by submerging the entire plate into a basin of wash buffer the appropriate number of times. Serum was initially diluted between 20-10,000-fold and diluted in 2-3 fold serial dilutions eight times on the ELISA plate. Plates were incubated with serum (50 μL/well) for 1 hr at 37° C. after which the plates were washed four times in TBS-T. HRP-conjugated secondary antibodies (Santa Cruz Biotechnologies) were diluted 2000-fold in assay diluent and 50 μL was added to each well. After incubation for 1 hr at 37° C., the plates were washed five times in TBS-T. To develop the plate, 75 μL/well of TMB substrate (Thermo Fisher) was added. The plate was incubated at RT for 15 minutes and then 75 μL/well of 2N H2504 was added to quench the reaction. Plates were read at 450 nm using a spectrophotometer (Molecular Devices). The titer was defined as the endpoint titer, which was the dilution of serum that produced an absorbance 2-fold above background.
Liposomes: All liposomes were composed of a 60:35:5 molar ratio of distearoyl phosphatidylcholine (DSPC; Avanti Polar Lipids), cholesterol (Sigma), and pegylated lipids. […]

[2] = target: T1, murine CD22 (Mus musculus, UniProt P35329); conditions: vs NeuGcα2-6Galβ1-4GlcNAc; cited from earlier work
T1 sequence (P35329 22-868): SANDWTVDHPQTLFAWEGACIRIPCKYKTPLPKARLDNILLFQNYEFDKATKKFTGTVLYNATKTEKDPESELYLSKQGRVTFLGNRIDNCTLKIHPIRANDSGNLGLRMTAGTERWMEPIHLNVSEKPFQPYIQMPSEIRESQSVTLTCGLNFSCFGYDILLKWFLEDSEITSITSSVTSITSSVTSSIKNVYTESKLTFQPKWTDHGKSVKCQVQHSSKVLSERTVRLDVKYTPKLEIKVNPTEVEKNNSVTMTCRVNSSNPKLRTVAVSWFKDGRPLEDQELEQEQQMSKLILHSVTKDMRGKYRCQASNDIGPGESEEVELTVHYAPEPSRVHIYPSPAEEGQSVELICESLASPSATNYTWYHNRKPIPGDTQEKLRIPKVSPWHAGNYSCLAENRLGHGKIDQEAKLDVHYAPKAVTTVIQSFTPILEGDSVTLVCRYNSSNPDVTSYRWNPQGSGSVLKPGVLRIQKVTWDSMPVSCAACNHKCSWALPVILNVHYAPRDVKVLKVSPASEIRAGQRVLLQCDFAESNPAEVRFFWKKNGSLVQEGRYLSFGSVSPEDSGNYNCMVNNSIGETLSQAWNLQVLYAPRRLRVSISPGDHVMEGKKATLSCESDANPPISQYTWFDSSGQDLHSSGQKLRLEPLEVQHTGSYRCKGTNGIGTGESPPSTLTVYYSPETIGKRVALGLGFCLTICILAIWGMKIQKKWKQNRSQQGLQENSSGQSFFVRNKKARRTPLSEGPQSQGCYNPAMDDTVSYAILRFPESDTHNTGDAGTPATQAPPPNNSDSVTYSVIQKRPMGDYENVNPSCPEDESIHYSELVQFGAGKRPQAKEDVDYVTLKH

[3] = target: T2, Siglec-G (Mus musculus, UniProt Q80ZE3); conditions: cited from earlier work
T2 sequence (Q80ZE3 18-688): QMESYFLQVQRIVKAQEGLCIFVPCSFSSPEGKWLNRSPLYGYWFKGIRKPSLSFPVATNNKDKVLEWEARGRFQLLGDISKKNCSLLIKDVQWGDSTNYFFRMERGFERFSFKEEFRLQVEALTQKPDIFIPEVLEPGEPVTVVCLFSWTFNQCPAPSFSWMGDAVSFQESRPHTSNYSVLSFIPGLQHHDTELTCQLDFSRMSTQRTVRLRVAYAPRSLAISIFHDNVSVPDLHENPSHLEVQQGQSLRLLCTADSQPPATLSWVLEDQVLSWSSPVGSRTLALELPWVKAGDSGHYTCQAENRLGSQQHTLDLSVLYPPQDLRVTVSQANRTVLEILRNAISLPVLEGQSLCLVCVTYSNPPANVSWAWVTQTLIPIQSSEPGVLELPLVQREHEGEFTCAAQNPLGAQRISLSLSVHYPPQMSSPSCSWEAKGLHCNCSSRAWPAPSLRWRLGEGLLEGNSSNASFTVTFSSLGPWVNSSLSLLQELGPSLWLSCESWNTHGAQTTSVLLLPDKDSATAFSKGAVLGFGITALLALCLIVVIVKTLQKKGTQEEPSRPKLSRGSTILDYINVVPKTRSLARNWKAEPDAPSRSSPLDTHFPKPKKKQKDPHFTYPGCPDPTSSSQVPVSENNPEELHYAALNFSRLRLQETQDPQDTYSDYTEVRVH

[4] = target: human CD22 (Homo sapiens, UniProt P20273); conditions: cited from earlier work
Sequence of human CD22 (P20273 20-847): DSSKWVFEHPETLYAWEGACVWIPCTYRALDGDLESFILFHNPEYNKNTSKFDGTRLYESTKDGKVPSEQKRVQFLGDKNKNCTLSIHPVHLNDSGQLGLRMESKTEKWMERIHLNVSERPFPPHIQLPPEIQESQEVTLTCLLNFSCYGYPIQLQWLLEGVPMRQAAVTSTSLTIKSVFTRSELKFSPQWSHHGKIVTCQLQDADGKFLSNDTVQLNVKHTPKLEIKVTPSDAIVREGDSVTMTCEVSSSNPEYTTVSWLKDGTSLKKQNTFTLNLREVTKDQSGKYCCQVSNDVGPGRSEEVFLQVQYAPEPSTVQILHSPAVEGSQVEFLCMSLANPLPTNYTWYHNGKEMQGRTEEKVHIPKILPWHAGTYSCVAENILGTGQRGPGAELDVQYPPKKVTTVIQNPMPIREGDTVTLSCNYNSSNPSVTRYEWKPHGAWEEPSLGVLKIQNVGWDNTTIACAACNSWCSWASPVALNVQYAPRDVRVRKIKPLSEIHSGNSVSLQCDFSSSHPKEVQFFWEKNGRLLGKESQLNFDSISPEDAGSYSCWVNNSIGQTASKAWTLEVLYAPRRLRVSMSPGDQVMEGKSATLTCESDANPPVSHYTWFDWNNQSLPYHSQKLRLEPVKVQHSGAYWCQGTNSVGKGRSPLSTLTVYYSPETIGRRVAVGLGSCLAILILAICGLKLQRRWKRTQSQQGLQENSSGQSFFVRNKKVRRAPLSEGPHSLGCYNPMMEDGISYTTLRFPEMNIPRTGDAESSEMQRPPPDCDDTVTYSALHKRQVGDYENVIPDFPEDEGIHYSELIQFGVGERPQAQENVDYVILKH

[5] = system: FVIII deficient plasma; assay: Coagulation assay (one-stage aPTT clotting FVIII:C); type: biochemical; conditions: PEGylated with PEGs 6 kD to 64 kD, assayed without purification
Method: COAGULATION ASSAY. The clotting FVIII:C test method is a one-stage assay based upon the activated partial thromboplastin time (aPTT). FVIII acts as a cofactor in the presence of Factor IXa, calcium, and phospholipid in the enzymatic conversion of Factor X to Xa. In this assay, the diluted test samples are incubated at 37° C. with a mixture of FVIII deficient plasma substrate and aPTT reagent. Calcium chloride is added to the incubated mixture and clotting is initiated. An inverse relationship exists between the time (seconds) it takes for a clot to form and logarithm of the concentration of FVIII:C. Activity levels for unknown samples are interpolated by comparing the clotting times of various dilutions of test material with a curve constructed from a series of dilutions of standard material of known activity and are reported in International Units per mL (IU/mL).
EFFECT OF PEG SIZE ON ACTIVITY. To test whether PEG sizes have an effect on both coagulation and chromogenic activities of FVIII upon PEGylation, purified full-length FVIII, PEG2, PEG6, and PEG14 were reduced by TCEP followed by reductant removal and reaction with a buffer control or PEGs ranging from 6 kD to 64 kD. The resulting PEGylated FVIII was directly assayed without removal of excess PEG or unPEGylated FVIII.

In the case of “9-N-biphenylacetyl-NeuGcα2-6Galβ1-4GlcNAc [^BPANeuGc]”, the “effect of ligand amount on liposomes on antibody production” value [1] is given as “dose-dependent effect on antibody production”, the “difference in EC50 between the two ligands” value ([1]; ^BPANeuGc vs NeuGc on tolerogenic HEL liposomes) is given as “two orders of magnitude difference” and the “affinity for murine CD22 relative to natural ligand” value [2] is given as 200 fold. For the same molecule, the “cross-reactivity with Siglec-G” value [3] was “only a small degree of cross-reactivity”.

In the case of “9-N-biphenylcarboxyl-NeuAca2-6Galβ3-4GlcNAc [^BPCNeuAc]”, the “affinity for human CD22” value [4] is given as “high affinity”.

For CC(=O)NC1C(O)OC(CO)C(OC2OC(COC3(C(=O)O)CC(O)C(NC(=O)CO)C(C(O)C(O)CO)O3)C(O)C(O)C2O)C1O (stereo not shown) [NeuGc, NeuGcα2-6Galβ1-4GlcNAc], the “effect of ligand amount on liposomes on antibody production” value [1] was “dose-dependent effect on antibody production”.

With PEG6 the “coagulation activity upon PEGylation” value [5] was “dramatic losses of coagulation activity”.
